The values that follow come from US20060069132A1, “Azolecarboxamide herbicides” (priority 2004, published 2006).

One experiment deals with blackgrass (ALOMY). Briefly: Test J Compounds 2 and 6 alone and in combination with other herbicides, foliage spray. It counts as in vivo, Alopecurus myosuroides. Further details: key: 0 = no effect, 100 = complete control. To be noted: applied alone. The text has this: (§1) Colby's Equation was used to calculate the expected additive herbicidal effect of the mixtures of Compound 6 with Harmony® Extra (i.e. a 2:1 mixture by weight of thifensulfuron-methyl and tribenuron-methyl). […]
(§2) Seeds of test plants consisting of barnyardgrass (ECHCG; Echinochloa crus-galli (L.) Beauv.), blackgrass (ALOMY; Alopecurus myosuroides Huds.), Surinam grass (BRADC; Urochloa decumbens (Staph) R. D. Webster, previously named Brachiaria decumbens Stapf), cocklebur (XANST, Xanthium strumarium L.), corn (ZEAMD, Zea mays L. cv. ‘Pioneer 33G26’), large crabgrass (DIGSA, Digitaria sanguinalis (L.) Scop.), giant foxtail (SETFA, Setaria faberi Herrm.), lambsquarters (CHEAL, Chenopodium album L.), morningglory (IPOCO, Ipomoea coccinea L.), pigweed (AMARE, Amaranthus retroflexus L.), velvetleaf (ABUTH, Abutilon theophrasti Medik.) wheat (TRZAS, Triticum aestivum L. cv. ‘Recital’) and wild oat (AVEFA, Avena fatua L.) were planted in Redi-Earth® planting medium (Scotts Company, 14111 Scottslawn Road, Marysville, Ohio 43041) comprising spaghnum peat moss and vermiculite. […] Also listed in Table J are the expected effects for the mixtures calculated using Colby's Equation.

The test system of a further experiment is Surinam grass (BRADC). The description is as above. Further details: key to BRADC Obsd.: 0 = no effect, 100 = complete control. To be noted: for BRADC Obsd.: applied alone; for observed effect of mixture compared with additive effect expected from Colby's Equation: Surinam grass, foliage spray, 15 days after treatment. The experiment is classed as in vivo, Urochloa decumbens. The source says:
Colby's Equation was used to calculate the expected additive herbicidal effect of the mixtures of Compound 6 with Harmony® Extra (i.e. a 2:1 mixture by weight of thifensulfuron-methyl and tribenuron-methyl). Colby's Equation (Colby, S. R. “Calculating Synergistic and Antagonistic Responses of Herbicide Combinations,” Weeds, 15(1), pp 20-22 (1967)) calculates the expected additive effect of herbicidal mixtures, and for two active ingredients is of the form: Pa+b=Pa+Pb−(PaPb/100) wherein • Pa+b is the percentage effect of the mixture expected from additive contribution of the individual components, • Pa is the observed percentage effect of the first active ingredient at the same use rate as in the mixture, and • Pb is the observed percentage effect of the second active ingredient at the same use rate as in the mixture.
Seeds of test plants consisting of barnyardgrass (ECHCG; Echinochloa crus-galli (L.) Beauv.), blackgrass (ALOMY; Alopecurus myosuroides Huds.), Surinam grass (BRADC; Urochloa decumbens (Staph) R. D. Webster, previously named Brachiaria decumbens Stapf), cocklebur (XANST, Xanthium strumarium L.), corn (ZEAMD, Zea mays L. cv. ‘Pioneer 33G26’), large crabgrass (DIGSA, Digitaria sanguinalis (L.) Scop.), giant foxtail (SETFA, Setaria faberi Herrm.), lambsquarters (CHEAL, Chenopodium album L.), morningglory (IPOCO, Ipomoea coccinea L.), pigweed (AMARE, Amaranthus retroflexus L.), velvetleaf (ABUTH, Abutilon theophrasti Medik.) wheat (TRZAS, Triticum aestivum L. cv. ‘Recital’) and wild oat (AVEFA, Avena fatua L.) were planted in Redi-Earth® planting medium (Scotts Company, 14111 Scottslawn Road, Marysville, Ohio 43041) comprising spaghnum peat moss and vermiculite. Seeds of small-seeded species were planted about 1 cm deep; larger seeds were planted about 2.5 cm deep. Plants were grown in a greenhouse using supplemental lighting to maintain a photoperiod of about 14 hours; daytime and nighttime temperatures were about 24-30° C. and 22-25° C., respectively. Balanced fertilizer was applied through the watering system. The plants were grown for 7 to 11 days so that at time of treatment the plants ranged in height from 2 to 18 cm (1- to 4-leaf stage). Treatments consisted of Compounds 2 and 6 (technical material), atrazine (90DF), terbacil (Sinbar® 80DF), hexazinone (Velpar® 75WG), diuron (Karmex® 80WP) and paraquat (Gramoxone® Extra, 37%) alone and in combination, suspended or dissolved in an aqueous solvent comprising a nonionic surfactant and applied as a foliage spray using a volume of 541 L/ha. Each treatment was triply replicated. […] Treated plants and controls were maintained in the greenhouse and watered as needed with care to not wet the foliage for the first 24 hours after treatment. The effects on the plants 15 days after treatment were visually compared to untreated controls. Plant response ratings, listed in Table J as the means of the thee replicates, are based on a scale of 0 to 100 where 0 is no effect and 100 is complete control. Also listed in Table J are the expected effects for the mixtures calculated using Colby's Equation.

The test system of a further experiment is cocklebur (XANST). Described as above. To be noted: applied alone. More on the design: key: 0 = no effect, 100 = complete control. It counts as in vivo, Xanthium strumarium.
Excerpt: as §2, with “vermiculite. Seeds of small-seeded species were planted about 1 cm deep; larger seeds were planted about 2.5 cm deep. Plants were grown in a greenhouse using supplemental lighting to maintain a photoperiod of about 14 hours; daytime and nighttime temperatures were about 24-30° C. and 22-25° C., respectively. Balanced fertilizer was applied through the watering system.” for “vermiculite.”

Another experiment deals with corn (ZEAMD). The description is as above. It counts as in vivo, Zea mays. More on the design: key: percentage herbicidal effect (observed). The following applies: applied alone.
Excerpt: as §1, §2

The next experiment deals with velvetleaf (ABUTH). Described as above. Further details: key: 0 = no effect, 100 = complete control. The following applies: applied alone. It counts as in vivo, Abutilon theophrasti.
Excerpt: as §1, §2

Another experiment concerns wheat (TRZAS). Described as above. It counts as in vivo, Triticum aestivum. Further details: key: 0 = no effect, 100 = complete control. To be noted: applied alone.
Excerpt: as §1, §2

The test system of a further experiment is wild oat (AVEFA). Described as above. The experiment is classed as in vivo, Avena fatua. More on the design: key: 0 = no effect, 100 = complete control. The following applies: applied alone.
Excerpt: as §1, §2

The test system of another experiment is common chickweed. Briefly: Test F pre-/postemergence herbicide test. The experiment is classed as in vivo, Stellaria media. The source says:
(§3) Seeds of plant species selected from annual blugrass (Poa annua L.), blackgrass (Alopecurus myosuroides Huds.), catchweed bedstraw (Gallium aparine L.), common chickweed (Stellaria media (L.) Vill./Cyr.), downy bromegrass (Bromus tectorum L.), green foxtail (Setaria viridis (L.) Beauv.), Italian ryegrass (Lolium multiflorum Lam.), kochia (Kochia scoparia (L.). Schrad.), lambsquarters (Chenopodium album L.), littleseed canarygrass (Phalaris minor Retz.), pigweed (Amaranthus retroflexus L.), Russian thistle (Salsola kali L. ssp. Ruthenica (Iljin) Soo), wild buckwheat (Polygonum convolvulus L.), wild mustard (Sinapis arvensis L.), wild oat (Avena fatua L.), windgrass (Apera spica-venti (L.) Beauv.), winter barley (Hordeum vulgare L.), and wheat (Triticum aestivum L.) were planted and treated preemergence with test chemicals formulated in a non-phytotoxic solvent mixture which included a surfactant.
(§4) At the same time, plants selected from these crop and weed species were treated with postemergence applications of some of the test chemicals formulated in the same manner. Plants ranged in height from 2 to 18 cm (1- to 4-leaf stage) for postemergence treatments. Treated plants and controls were maintained in a greenhouse for 12 to 14 days, after which time all species were compared to controls and visually evaluated. Plant response ratings, summarized in Table F, are based on a scale of 0 to 100 where 0 is no effect and 100 is complete control. A dash (-) response means no test result.

Another experiment has as its system Italian ryegrass. As to the kind of experiment: Test F pre-/postemergence herbicide test. The experiment is classed as in vivo, Lolium multiflorum.
Excerpt: as §3, §4

Regarding `CCn1nc(C(C)(C)C)cc1C(=O)Nc1cc(C(=O)N(C)C)ccc1F` [Compound 6, N-[5-[(dimethylamino)carbonyl]-2-fluorophenyl]-3-(1,1-dimethylethyl)-1-ethyl-1H-pyrazole-5-carboxamide], the results for the “ALOMY Obsd.” value in the experiment with blackgrass (ALOMY) (62 g a.i./ha) and in the experiment on blackgrass (ALOMY) (125 g a.i./ha) were 18 and 33, respectively. Also, the “BRADC Obsd.” value was found to be 15 in the experiment with Surinam grass (BRADC) (62 g a.i./ha) and 40 with Surinam grass (BRADC) (125 g a.i./ha). Also, the “observed effect of mixture compared with additive effect expected from Colby's Equation” value is given as “greater than additive” in the experiment on Surinam grass (BRADC) (mixture with diuron); “synergistic activity” in the experiment with Surinam grass (BRADC) (mixture with diuron, listed as compound 6); “greater than additive” with Surinam grass (BRADC) (mixture with hexazinone); “synergistic activity” in the experiment with Surinam grass (BRADC) (mixture with hexazinone, listed as compound 6); “greater than additive” in the experiment with Surinam grass (BRADC) (mixture with terbacil). For the same molecule, the “XANST Obsd.” value with cocklebur (XANST) (62 g a.i./ha) was found to be 67; in the experiment on cocklebur (XANST) (125 g a.i./ha), 63. Further, the figures for the “ZEAMD Obsd.” value in the experiment on corn (ZEAMD) (62 g a.i./ha) and in the experiment with corn (ZEAMD) (125 g a.i./ha) were 22 and 28, respectively. The “ABUTH Obsd.” value with velvetleaf (ABUTH) (62 g a.i./ha) is listed as 27; in the experiment with velvetleaf (ABUTH) (125 g a.i./ha) it was 47. The “TRZAS Obsd.” value amounted to 15 with wheat (TRZAS) (62 g a.i./ha) and 30 in the experiment with wheat (TRZAS) (125 g a.i./ha). Besides, the figures for the “AVEFA Obsd.” value with wild oat (AVEFA) (62 g a.i./ha) and in the experiment with wild oat (AVEFA) (125 g a.i./ha) were 10 and 25, respectively.

With `CCn1nc(C(C)(C)C)cc1C(=O)Nc1cc(C(=O)OC(C)C)c(F)cc1F` [Compound 248], the “Plant response rating (0-100), Chickweed” value was 65 in the experiment on common chickweed (Postemergence, 31 g ai/ha); 65 in the experiment with common chickweed (Postemergence, 62 g ai/ha); 98 in the experiment with common chickweed (Postemergence, 125 g ai/ha); 100 in the experiment with common chickweed (Postemergence, 250 g ai/ha); 100 in the experiment with common chickweed (Preemergence, 31 g ai/ha); 100 with common chickweed (Preemergence, 62 g ai/ha). Further, the “Plant response rating (0-100), Chickweed” value in the experiment with common chickweed (Preemergence, 125 g ai/ha) was determined as 100; in the experiment with common chickweed (Preemergence, 250 g ai/ha) it was 100. The “Plant response rating (0-100), Ryegrass, Italian” value was determined as 45 with Italian ryegrass (Postemergence, 31 g ai/ha); 55 with Italian ryegrass (Postemergence, 62 g ai/ha); 60 with Italian ryegrass (Postemergence, 125 g ai/ha); 65 in the experiment on Italian ryegrass (Postemergence, 250 g ai/ha); 30 in the experiment on Italian ryegrass (Preemergence, 31 g ai/ha); 50 in the experiment on Italian ryegrass (Preemergence, 62 g ai/ha). Also, the “Plant response rating (0-100), Ryegrass, Italian” value in the experiment on Italian ryegrass (Preemergence, 125 g ai/ha) came to 50; in the experiment with Italian ryegrass (Preemergence, 250 g ai/ha), 60.
